Test results published in US5006546A, “Imidazole derivatives” (Rhone-Poulenc Sante, priority 1989, dated 1991).

Biological target: T1, acyl coenzyme-A:cholesterol-O-acyl transferase (ACAT; EC 2.3.1.26) (Rattus norvegicus, UniProt Q7TQM4)
T1 construct: microsomes obtained from the livers of rats; from tissue; host or cells: liver microsomes of rats fed 0.5% w/w cholesterol and 0.25% w/w cholic acid
T1 sequence (Q7TQM4 1-524): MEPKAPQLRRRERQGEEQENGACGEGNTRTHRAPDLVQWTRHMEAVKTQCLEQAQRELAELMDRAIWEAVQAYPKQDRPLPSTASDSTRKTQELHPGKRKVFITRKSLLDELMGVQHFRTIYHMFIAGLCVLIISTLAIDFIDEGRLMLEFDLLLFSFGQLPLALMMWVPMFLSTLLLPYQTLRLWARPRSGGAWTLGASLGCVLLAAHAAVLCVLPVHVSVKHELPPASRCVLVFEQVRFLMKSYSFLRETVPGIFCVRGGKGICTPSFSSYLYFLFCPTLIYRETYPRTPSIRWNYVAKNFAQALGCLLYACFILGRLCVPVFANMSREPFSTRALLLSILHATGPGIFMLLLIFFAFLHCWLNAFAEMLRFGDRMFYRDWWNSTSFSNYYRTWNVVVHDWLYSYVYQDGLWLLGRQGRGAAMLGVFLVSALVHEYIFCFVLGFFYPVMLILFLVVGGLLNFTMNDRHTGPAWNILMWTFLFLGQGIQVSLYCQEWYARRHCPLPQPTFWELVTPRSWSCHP
Assay: In vitro inhibition of acyl coenzyme-A:cholesterol-O-acyl transferase (ACAT) in liver microsomes of cholesterol/cholic acid-fed rats
Format: biochemical
Details: microsomes from livers of rats fed a diet containing 0.5% w/w cholesterol and 0.25% w/w cholic acid

| IC50 | SMILES |
| --- | --- |
| 91 nM | CO[C@H]1C[C@H](O)C[C@@H](CSc2nc(-c3ccccc3)c(-c3ccccc3)[nH]2)O1 [(II), (2R,4R,6S)-6-[(4,5-diphenylimidazol-2-yl)thiomethyl]-4-hydroxy-2-methoxy-3,4,5,6-tetrahydro-2H-pyran] |
| 50 nM | CO[C@@H]1C[C@H](O)C[C@@H](CSc2nc(-c3ccccc3)c(-c3ccccc3)[nH]2)O1 [(I), (2S,4R,6S)-6-[(4,5-diphenylimidazol-2-yl)thiomethyl]-4-hydroxy-2-methoxy-3,4,5,6-tetrahydro-2H-pyran] |
